Reference: ChEMBL document CHEMBL1127345, “Synthesis, binding properties, and 18F labeling of fluorocarazolol, a high-affinity beta-adrenergic receptor antagonist” (J Med Chem, 1994)

Tests used:
Assay type in all cases: physicochemical
[1] = The octanol-water partition coefficient at pH 10.0
[2] = The octanol-water partition coefficient at pH 7.5
[3] = The octanol-water partition coefficient at pH 5.8
[4] = The octanol-water partition coefficient at pH 9.4
[5] = The octanol-water partition coefficient at pH 6.4
[6] = The octanol-water partition coefficient at pH 10.8
[7] = The octanol-water partition coefficient at pH 8.3
[8] = The octanol-water partition coefficient at pH 4.5
[9] = The octanol-water partition coefficient at pH 3.3
[10] = The octanol-water partition coefficient at pH 7.0

SMILES | logD [1] | logD [2] | logD [3] | logD [4] | logD [5] | logD [6] | logD [7] | logD [8] | logD [9] | logD [10]
CC(C)NCC(O)COc1cccc2[nH]c3ccccc3c12 (stereo not given) [CARAZOLOL] | 2.5 | 1.51 | 0.42 | 2.44 | 0.68 | 2.43 | 2.13 | 0.3 | 0.17 | 1.07
CC(CF)NCC(O)COc1cccc2[nH]c3ccccc3c12 (stereo not given) [FLUOROCARAZOLOL] | 2.81 | 2.48 | 1.11 | 2.8 | 1.76 | 2.81 | 2.7 | 0.38 | 0.03 | 2.2
